From ChEMBL document CHEMBL1159165, “Novel, selective mechanism-based inhibitors of the herpes proteases” (Bioorg Med Chem Lett, 1996)

Experiments:
Human betaherpesvirus 5 [1] = test: Compound was evaluated for inhibitory activity against human cytomegalovirus (HCMV) protease.; format: functional
[2] = Compound was evaluated for inhibitory activity against herpes simplex type 2 protease (HSV-2 pr) at dose of 10 uM; conditions: Human alphaherpesvirus 2
Human betaherpesvirus 5 [3] = test: Compound was evaluated for inhibitory activity against human cytomegalovirus (HCMV) protease at dose of 10 uM; format: functional
[4] = Compound was evaluated for inhibitory activity against elastase at dose of 100 uM
[5] = Compound was evaluated for inhibitory activity against Chymotrypsinogen at dose of 22 uM
[6] = molecular target: Serine protease 1 (Homo sapiens) (UniProt P07477); test: Compound was evaluated for inhibitory activity against trypsin at dose of 100 uM
Chain of Serine protease 1 (Homo sapiens) (P07477 whole entry): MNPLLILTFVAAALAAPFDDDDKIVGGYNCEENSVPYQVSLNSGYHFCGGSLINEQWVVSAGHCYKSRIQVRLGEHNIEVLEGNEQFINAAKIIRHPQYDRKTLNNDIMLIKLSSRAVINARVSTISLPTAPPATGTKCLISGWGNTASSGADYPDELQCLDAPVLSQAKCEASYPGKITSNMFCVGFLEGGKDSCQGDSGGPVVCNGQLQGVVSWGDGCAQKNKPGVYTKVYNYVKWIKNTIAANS

[7] = Compound was evaluated for inhibitory activity against Chymotrypsinogen at dose of 100 uM
Human betaherpesvirus 5 [8] = test: Compound was evaluated for inhibitory activity against human cytomegalovirus (HCMV) protease 10 uM; format: functional

| SMILES | IC50 (Human betaherpesvirus 5 [1]) [nM] | inhibition [2] [%] | inhibition [4] [%] | further results |
| --- | --- | --- | --- | --- |
| COc1ccc(S(=O)(=O)ON2C(=O)/C(=C/c3ccccc3)N=C2c2ccccc2)cc1 | 2300 | 20 | – | – |
| CC(=O)Oc1ccc([C@H]2C[C@@]23N=C(c2ccccc2)OC3=O)cc1 | 1100 | – | – | – |
| CC(=O)ON1C(=O)/C(=C/c2ccccc2)N=C1c1ccccc1 | – | 14 | – | inhibition at 10 µM (Human betaherpesvirus 5 [3]): 35% |
| CS(=O)(=O)ON1C(=O)/C(=C/c2ccccc2)N=C1c1ccccc1 | 400 | – | 33 | – |
| CCOP(=O)(OCC)ON1C(=O)/C(=C/c2ccccc2)N=C1c1ccccc1 | – | 5 | – | inhibition at 10 µM (Human betaherpesvirus 5 [3]): 20% |
| COc1ccc([C@H]2C[C@@]23N=C(c2ccccc2)OC3=O)cc1 | 200 | – | 35 | inhibition [6]: 64%; inhibition [7]: 92% |
| O=C1OC(c2ccccc2)=NC12CC2 | – | 71 | – | Inhibition (Human betaherpesvirus 5 [8]): 16% |
| CC(=O)n1cc([C@H]2C[C@@]23N=C(c2ccccc2)OC3=O)c2ccccc21 | 160 | – | – | – |

Continued, in another order:

| IC50 (Human betaherpesvirus 5 [1]) [nM] | inhibition [2] [%] | inhibition [4] [%] | SMILES | further results |
| --- | --- | --- | --- | --- |
| 1800 | – | 42 | O=C1OC(c2ccccc2)=N[C@@]12C[C@@H]2c1ccccc1 | inhibition [5]: 92%; inhibition [6]: 63% |
| – | – | 82 | CC1=N[C@@]2(C[C@@H]2c2ccccc2)C(=O)O1 | inhibition [6]: 88% |
| – | 24 | – | O=C1OC(c2ccccc2)=N[C@@]12C[C@H]2c1ccccc1 | inhibition at 10 µM (Human betaherpesvirus 5 [3]): 85% |
